Key:
influenza A = test: Influenza A mouse model, Compound (1) with or without oseltamivir; format: in vivo, Mice; details: for Percent Survival: 10 days
Method: Referring to FIG. 32, the potential for a positive therapeutic interaction between Compound (1) and oseltamivir against influenza A was explored in the mouse model. Mice were challenged with influenza A and dosed with vehicle (10 mL/kg 0.5% MC) or Compound (1) at 1, 3, 10, or 30 mg/kg BID alone, or in combination with 10 mg/kg BID oseltamivir. Therapy was started 48 hours post influenza A infection and continued for 10 days. All of the vehicle-treated controls succumbed to disease by study day 8 (Table 21).

A/Missouri/3/2006 = test: 3-day CP assay in MDCK cells; format: cell-based; details: Influenza A virus
A/New York/18/2009 = test: 3-day CP assay in MDCK cells; format: cell-based; details: Influenza A virus
A/Georgia/20/2006 = test: 3-day CP assay in MDCK cells; format: cell-based, influenza A
A/Chelyabinsk/1/200 = test: 3-day CP assay in MDCK cells; format: cell-based; details: Influenza A virus
A/NWS/33 = test: 3-day CP assay in MDCK cells; format: cell-based, influenza A
A/Texas/48/2009 = test: 3-day CP assay in MDCK cells; format: cell-based; details: Influenza A virus
A/Hawaii/2/2006 = test: 3-day CP assay in MDCK cells; format: cell-based; details: Influenza A virus
A/Santiago/7981/2006 = test: 3-day CP assay in MDCK cells; format: cell-based; details: Influenza A virus
A/South Dakota/6/2007 = test: 3-day CP assay in MDCK cells; format: cell-based; details: Influenza A virus
A/Aichi/2/68 = test: 3-day CP assay in MDCK cells; format: cell-based; details: Influenza A virus
A/Port Chalmers/1/73 = test: 3-day CP assay in MDCK cells; format: cell-based; details: Influenza A virus
A/Denver/1/57 = test: 3-day CP assay in MDCK cells; format: cell-based; details: Influenza A virus
B/Lee/40 = test: 3-day CP assay in MDCK cells; format: cell-based; details: Influenza B virus
A/New Jersey/8/76 = test: microbe, parasite or virus in culture; format: cell-based; details: Influenza A virus, MDCK
A/Victoria/3/75 = test: 3-day CP assay in MDCK cells; format: cell-based; details: Influenza A virus
B/Mass/3/66 = test: 3-day CP assay in MDCK cells; format: cell-based; details: Influenza B virus
A/Virginia/ATCC3/2009 = test: 3-day CP assay in MDCK cells; format: cell-based; details: Influenza A virus
A/Fukushima/141/2006 = test: 3-day CP assay in MDCK cells; format: cell-based; details: Influenza A virus
A/Mal/302/54 = test: 3-day CP assay in MDCK cells; format: cell-based; details: Influenza A virus
A/California/07/2009 = test: 3-day CP assay in MDCK cells; format: cell-based; details: Influenza A virus, H1N1, MDCK, in Sus scrofa
B/Russia/69 = test: 3-day CP assay in MDCK cells; format: cell-based; details: Influenza B virus
A/Georgia/17/2006 = test: 3-day CP assay in MDCK cells; format: cell-based; details: Influenza A virus
A/Cambodia0371/2007 = test: 3-day CP assay in MDCK cells; format: cell-based; details: Influenza A virus
A/VN/1203/2004 (H5N1) = test: microbe, parasite or virus in culture; format: cell-based; details: Influenza A virus, H5N1, MDCK
B/Memphis/20/1996--070 = test: 3-day CP assay in MDCK cells; format: cell-based; details: Influenza B virus
A/Weiss/43 = test: 3-day CP assay in MDCK cells; format: cell-based; details: Influenza A virus
A/Puerto Rico/8/34 = test: 3-day CP assay in MDCK cells; format: cell-based; details: Influenza A virus
A/Mexico/4108/2009 = test: 3-day CP assay in MDCK cells; format: cell-based; details: Influenza A virus
A/Uruguay/716/2007 = test: 3-day CP assay in MDCK cells; format: cell-based; details: Influenza A virus
A/Henan/Jinshui/147/2007 = test: 3-day CP assay in MDCK cells; format: cell-based; details: Influenza A virus
A/Texas/12/2007 = test: 3-day CP assay in MDCK cells; format: cell-based; details: Influenza A virus
B/Memphis/20/1996--071 = test: 3-day CP assay in MDCK cells; format: cell-based; details: Influenza B virus
A/Wisconsin/67/2005 = test: 3-day CP assay in MDCK cells; format: cell-based; details: Influenza A virus
[1] = test system: influenza type A (H1N1, H3N2, and H3N8) viral strains; format: cell-based
A/FM/1/47 = test: 3-day CP assay in MDCK cells; format: cell-based; details: Influenza A virus
A/Equine/Miami/63 = test: microbe, parasite or virus in culture; format: cell-based; details: Influenza A virus, MDCK
[2] = test system: A/California/07/2009 NYMC, X-179A; test: 3-day CP assay in MDCK cells; format: cell-based; details: Influenza A virus
A/Nebraska/1/2006 = test: 3-day CP assay in MDCK cells; format: cell-based; details: Influenza A virus
A/WS/33 = test: 3-day CP assay in MDCK cells; format: cell-based; details: Influenza A virus
A/Virginia/ATCC2/2009 = test: 3-day CP assay in MDCK cells; format: cell-based; details: Influenza A virus
A/Swine/1976/31 = test: microbe, parasite or virus in culture; format: cell-based; details: Influenza A virus, MDCK, in Sus scrofa

In the case of `CC(C)(C)[C@@H](CC(=O)O)Nc1nc(-c2c[nH]c3ncc(F)cc23)ncc1F` [Compound (1)], the protection from mortality (influenza A; 1 or 3 mg/kg BID Compound (1) with 10 mg/kg oseltamivir dosed BID) is reported as “increased protection from mortality compared to the single agents”, the “Percent Survival” value (influenza A; Compound (1) 1 mg/kg BID alone, started +48 hours after infection) is reported as 0% and the “Percent Survival” value (influenza A; Compound (1) 1 mg/kg BID in combination with oseltamivir 10 mg/kg BID, +48 hours) is reported as 87.5%. For the same compound, the “Percent Survival” value (influenza A; Compound (1) 3 mg/kg BID alone, started +48 hours after infection) was 75%, the “Percent Survival” value (influenza A; Compound (1) 3 mg/kg BID in combination with oseltamivir 10 mg/kg BID, +48 hours) was 100% and the “Percent Survival” value (influenza A; Compound (1) 10 mg/kg BID alone, started +48 hours after infection) was 100%. For the same compound, the “Percent Survival” value (influenza A; Compound (1) 10 mg/kg BID in combination with oseltamivir 10 mg/kg BID, +48 hours) was 100%, the “Percent Survival” value (influenza A; Compound (1) 30 mg/kg BID alone, started +48 hours after infection) was 100% and the “Percent Survival” value (influenza A; Compound (1) 30 mg/kg BID in combination with oseltamivir 10 mg/kg BID, +48 hours) was 100%. The protection from mortality (influenza A; Compound (1) at 3 mg/kg BID alone) was “partial survival benefit”, the protection from mortality (influenza A; Compound (1) at 10 or 30 mg/kg BID alone) was “complete protection from mortality” and the protection from mortality (influenza A; administered alone: Compound (1) 1 mg/kg BID, oseltamivir 10 mg/kg) was “failed to protect mice from influenza infection”. The “interaction of Compound (1) and oseltamivir combination” value (influenza A; combination with oseltamivir) was “synergistic effect”, the EC50 (A/Missouri/3/2006) was 2.6 nM and the EC50 (A/New York/18/2009) was 1.4 nM. The EC50 (A/Georgia/20/2006) was 1.7 nM, the EC50 (A/Chelyabinsk/1/200) was 3.1 nM and the EC50 (A/NWS/33) was 1.7 nM. The EC50 (A/Texas/48/2009) was 1.2 nM, the EC50 (A/Hawaii/2/2006) was 1.2 nM and the EC50 (A/Santiago/7981/2006) was 1.8 nM. For the same compound, the EC50 (A/South Dakota/6/2007) was 0.52 nM, the EC50 (A/Aichi/2/68) was 4.4 nM and the EC50 (A/Port Chalmers/1/73) was 2.3 nM. For the same compound, the EC50 (A/Denver/1/57) was 1.4 nM, the EC50 (B/Lee/40) was over 10000 nM and the EC50 (A/New Jersey/8/76) was 0.96 nM. For the same compound, the EC50 (A/Victoria/3/75) was 2.1 nM, the EC50 (B/Mass/3/66) was over 10000 nM and the EC50 (A/Virginia/ATCC3/2009) was 1.2 nM. The EC50 (A/Fukushima/141/2006) was 1.5 nM, the EC50 (A/Mal/302/54) was 3.9 nM and the EC50 (A/California/07/2009) was 4 nM. For the same compound, the EC50 (B/Russia/69) was over 10000 nM, the EC50 (A/Georgia/17/2006) was 9.1 nM and the EC50 (A/Cambodia0371/2007) was 1.2 nM. For the same compound, the EC50 (A/VN/1203/2004 (H5N1)) was 4.2 nM, the EC50 (B/Memphis/20/1996--070) was over 10000 nM and the EC50 (A/Weiss/43) was 1.3 nM. The EC50 (A/Puerto Rico/8/34) was 14 nM, the EC50 (A/Mexico/4108/2009) was 3.7 nM and the EC50 (A/Uruguay/716/2007) was 1 nM. For the same compound, the EC50 (A/Henan/Jinshui/147/2007) was 19 nM, the EC50 (A/Texas/12/2007) was 30 nM and the EC50 (B/Memphis/20/1996--071) was over 10000 nM. It also gave an EC50 (A/Wisconsin/67/2005) of 3.7 nM, an EC50 [1] of 4.3 nM and an EC50 (A/FM/1/47) of 1.5 nM. The EC50 (A/Equine/Miami/63) was 3.7 nM, the EC50 [2] was 10 nM and the EC50 (A/Nebraska/1/2006) was 1.9 nM. For the same compound, the EC50 (A/WS/33) was 2.4 nM, the EC50 (A/Virginia/ATCC2/2009) was 1.4 nM and the EC50 (A/Swine/1976/31) was 5.2 nM.
